From PubChem BioAssay (NCI)
“And” between values parts separate entries of the source, which are not always exact repeats. Equal values may be shown once.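 These data come from cells grown in 96-well plates and exposed to compound for 48 hours at five concentrations. The concentration for 50% growth inhibition is given as GI50. TGI: total growth inhibition.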

What was measured:
Experiment in all cases: DTP human tumour cell line panel, 48 h
ACHN renal = test system: ACHN renal
HOP-62 NSCLC = test system: HOP-62 NSCLC
MALME-3M melanoma = test system: MALME-3M melanoma
MOLT-4 leukemia = test system: MOLT-4 leukemia
NCI-H460 lung = test system: NCI-H460 lung
OVCAR-3 ovarian = test system: OVCAR-3 ovarian
SF-539 CNS = test system: SF-539 CNS
SNB-75 CNS = test system: SNB-75 CNS
SR leukemia = test system: SR leukemia
TK-10 renal = test system: TK-10 renal

Structure (SMILES) | GI50 (ACHN renal) | TGI (ACHN renal) | GI50 (HOP-62 NSCLC) | TGI (HOP-62 NSCLC) | TGI (MALME-3M melanoma) | GI50 (MOLT-4 leukemia) | TGI (MOLT-4 leukemia) | GI50 (NCI-H460 lung) | GI50 (OVCAR-3 ovarian) | TGI (OVCAR-3 ovarian) | GI50 (SF-539 CNS) | TGI (SF-539 CNS) | GI50 (SNB-75 CNS) | TGI (SNB-75 CNS) | GI50 (SR leukemia) | TGI (SR leukemia) | TGI (TK-10 renal) | TGI (NCI-H460 lung) | GI50 (MALME-3M melanoma) | GI50 (TK-10 renal)
COc1ccc(N(C)c2nc(C)nc3ccccc23)cc1 | < 0.01 µM | > 91.8 µM | < 0.01 µM | > 100 µM | 39.5 µM | < 0.01 µM | > 100 µM | < 0.01 µM | < 0.01 µM | < 0.01 µM | < 0.01 µM | > 100 µM | < 0.01 µM | > 100 µM | < 0.01 µM | > 36.5 µM | > 47.5 µM | – | – | –
O=C1c2ccccc2-c2c1c1ccccc1c(=O)n2CCO | – | 10.4 µM | – | 32.5 µM | > 100 µM | – | 9.36 µM | – | – | > 100 µM | – | > 94.1 µM | – | > 81 µM | – | 22.5 µM | > 100 µM | 11.3 µM | – | –
O/N=C1\CCc2cc(-c3nc(C4CCNCC4)[nH]c3-c3ccncc3)ccc21 | > 25 µM | > 25 µM | > 25 µM | > 25 µM | 12.3 µM | > 25 µM | > 25 µM | > 25 µM | > 25 µM | > 25 µM | > 25 µM | > 25 µM | > 15.8 µM | > 25 µM | > 25 µM | > 25 µM | > 25 µM | > 25 µM | 3.02 µM | > 25 µM
O=C1c2cc3c(cc2-c2c1c1cc(Cl)c(Cl)cc1c(=O)n2CCCn1ccnc1)OCO3 | < 0.01 µM | 1.09 µM | < 0.01 µM | – | 17 µM | < 0.01 µM | 10.9 µM | < 0.01 µM | 0.0425 µM | 18.8 µM | < 0.01 µM | 0.0206 µM | < 0.01 µM | 17.1 µM | < 0.01 µM | 1.67 µM | > 100 µM | > 100 µM | 0.0232 µM | 0.085 µM
COc1cc(CCc2cc(NC(=O)c3ccc(N4C[C@@H](C)N[C@@H](C)C4)cc3)n[nH]2)cc(OC)c1 | 9.45 µM and 4.41 µM | > 10 µM and 15.3 µM | > 10 µM and 7.2 µM | > 10 µM and 20.3 µM | > 10 µM and 19.9 µM | 4.38 µM and 3.69 µM | > 10 µM and 13.2 µM | 6.39 µM and 4.16 µM | > 10 µM and 15.7 µM | > 10 µM and 30 µM | 6.6 µM and 4.08 µM | > 10 µM and 15.1 µM | 1.93 µM and 2.61 µM | > 10 µM and 11.2 µM | 3.75 µM and 2.34 µM | > 10 µM and 5.42 µM | > 10 µM and 23.6 µM | > 10 µM and 14.8 µM | 8.58 µM and 5.25 µM | > 10 µM and 10.4 µM
N[C@H]1C2C3CC4C5CC(C42)C1(c1ccccc1)C53 (stereo partly specified) | – | > 100 µM | – | > 100 µM | > 100 µM | – | > 100 µM | – | – | > 100 µM | – | > 100 µM | – | > 100 µM | – | > 100 µM | > 100 µM | > 100 µM | – | –
COC(=O)[C@]12CC[C@@H](C)[C@H](C)[C@@H]1C1=CC[C@@H]3[C@@]4(C)CC(=O)[C@H](O)[C@@]5(C)COC(=C45)C[C@@]3(C)[C@]1(C)CC2 | 18.3 µM | 33.9 µM | 16.9 µM | 31.1 µM | 30.7 µM | 18.7 µM | 39.1 µM | 18.8 µM | 19 µM | 34.8 µM | 18.8 µM | 37.2 µM | 16 µM | 33 µM | 20.4 µM | 45.2 µM | 38 µM | 37.5 µM | 16.2 µM | 20.4 µM
CCCCCCCCCCCCCCCCCCNC(=O)[C@H]1CSC(c2ccc(OC)c(F)c2)N1 (stereo partly specified) | > 36.8 µM | > 52.1 µM | 2.16 µM | 5.12 µM | > 45.5 µM | 1.48 µM | 9.18 µM | 0.606 µM | 7.84 µM | > 50.2 µM | 4.67 µM | > 37.6 µM | 3.1 µM | 14.1 µM | 0.641 µM | 2.88 µM | > 57.7 µM | 2.02 µM | > 26.2 µM | 28.3 µM
COc1cc[nH]c1/C=C1\C(=O)Nc2ccc(F)c(C#C[C@@H](O)[C@@H](N)[C@@H](C)O)c21 | 0.323 µM | 2.94 µM | 0.647 µM | 2 µM | 1.7 µM | 0.6 µM | 2.06 µM | 0.515 µM | 0.685 µM | 2.26 µM | 0.472 µM | 1.12 µM | 0.112 µM | 0.75 µM | 0.114 µM | 1.95 µM | 1.86 µM | 2.77 µM | 0.504 µM | 0.258 µM
NNC(=O)/C(=C/c1cccc([N+](=O)[O-])c1)NC(=O)c1ccccc1 | – | > 100 µM | – | > 100 µM | > 100 µM | – | > 100 µM | – | – | > 100 µM | – | > 100 µM | – | > 100 µM | – | > 100 µM | > 100 µM | > 100 µM | – | –
Cc1c(NC(=O)C(=O)N=NC(=O)c2ccncc2)c(O)c2ccccc2c1O | – | 29.6 µM | – | 40.7 µM | 16.4 µM | – | > 77.8 µM | – | – | 29.1 µM | – | 33.3 µM | – | 36.2 µM | – | > 36.4 µM | > 100 µM | 16.8 µM | – | –
